PubChem BioAssay (NCI)
“And” between values parts separate entries of the source, which are not always exact repeats. Equal values may be shown once.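 All cell lines were grown in 96-well plates and treated with compound for 48 hours. GI50 is the concentration that inhibits growth by half. The concentration for full growth arrest is given as TGI.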

Each molecule was assayed on UACC-257 melanoma (assay: growth of human tumour cells (NCI), 48 h).
With `O=c1[nH]c2nc3ccccc3c(=O)n2/c1=C/c1cccs1` the TGI was greater than 100 µM.
In the case of `Cc1cc(C)nc(NC(P(=O)(O)O)P(=O)(O)O)n1`, the TGI is reported as greater than 100 µM.
In the case of `COc1ccc(/C=N/N=C(\N)NO)c(OC)c1C`, the TGI is reported as greater than 100 µM.
In the case of `CCCC(=O)[O-].CCCC(=O)[O-].NCCN.NCCN.[Co+3].[O-][Cl+3]([O-])([O-])[O-]`, the TGI is reported as greater than 100 µM.
For `COc1cc(Nc2nc3cc(C(F)(F)F)ccc3nc2C(=O)O)cc(OC)c1OC`, the TGI was greater than 100 µM.
Molecule `NCCCN(CCCN)CCc1cn(C(=O)c2ccccc2)cn1` has a TGI of 25.2 µM.
Work on `COc1cccc(-c2nc(-c3cnccn3)n(C/C=C/c3ccccc3)n2)c1` yielded a TGI greater than 10 µM.
Work on `CC1(C)O[C@H]2OC(CO)C(N=[N+]=[N-])[C@H]2O1` (some centres not stated) yielded a TGI greater than 100 µM.
Work on `C=C1CC[C@H]2C(=O)OC(c3ccoc3)C[C@]2(C)C/C=C\C=C/1C(=O)OC` (some centres not stated) yielded a TGI greater than 25 µM.
`CC(NC(=O)Cc1ccccc1)NC(=O)C(C)C(=O)NCc1ccccc1` (configuration not stated) gave a TGI greater than 100 µM.
`CC(=O)OCC1OC(n2c(C)c(N=Nc3ccc(Cl)cc3)c(C)c(C#N)c2=S)C(OC(C)=O)C(OC(C)=O)C1OC(C)=O` (configuration not stated) gave a TGI greater than 100 µM.
Molecule `CCCCC1Cc2cc(O)ccc2-c2nc3cc(O)ccc3n21` (configuration not stated) (tested in a mixture with another compound) has a TGI of 45.6 µM.
`CC(NC(=O)c1c(O)[nH]c(=S)[nH]c1=O)c1ccc([N+](=O)[O-])cc1` (configuration not stated) gave a TGI greater than 100 µM.
`CC(=O)c1c(N=[N+]=[N-])c2cccc3c2n(c1=O)CCC3` was tested, and the TGI was 37.8 µM.
Molecule `NC1(CCNC(=O)c2ccccc2)CCN(C(=O)c2ccccc2)CC1` has a TGI greater than 100 µM.
`Cn1nnnc1SC(F)(F)c1nc2ccccc2o1` gave a TGI greater than 100 µM.
Work on `COC(=O)N[C@H](C(=O)NC(OCc1ccccc1)C1COC(C)(C)O1)C(C)O[Si](C)(C)C(C)(C)C` (some centres not stated) yielded a TGI greater than 100 µM.
For `COc1ccc(C2c3cc4c(cc3OC(N3CCOCC3)C2C)OCO4)cc1` (configuration not stated), the TGI was greater than 100 µM.
With `CC(=O)O[C@]12CCCCCC1C1(O)C(O)CCCCC12` (some centres not stated) the TGI was greater than 100 µM.
`C/C=C\C(CC(=O)NCC(=O)c1c[nH]c2ccccc12)CC(=O)OC` (configuration not stated) gave a TGI greater than 100 µM.
For `O=Cc1ccc(-c2ccc(-c3ccc(CO)s3)o2)s1`, the TGI was 0.506 µM.
`CCOP(=O)(OCC)/C(C#N)=C/c1ccc(-c2cc(C(F)(F)F)cc(C(F)(F)F)c2)o1` gave a TGI of 30.6 µM.
Work on `CN1CCc2c(sc3[nH]c(=S)[nH]c(=S)c23)C1` yielded a TGI greater than 100 µM.
`Cc1n[n+](Cc2ccccc2)c2sc(N)nn12` gave a TGI greater than 100 µM.
Molecule `CCOC(=O)c1c(OCC)[nH]c(=O)c(C(c2cccs2)c2c(O)c(C(=O)OCC)c(OCC)[nH]c2=O)c1O` has a TGI of 36.9 µM.
`CC(=O)Nc1c(C(=N)C#N)ncn1CCO` was tested, and the TGI was greater than 100 µM.
With `CN1CCN(/C(N)=C(\C#N)C(=O)Nc2ccc(Cl)cc2)CC1` the TGI was greater than 100 µM.
`COc1cc2nc(-c3cccs3)nc(Cl)c2cc1OC` showed a TGI greater than 100 µM.
With `O=P1(Cc2ccccc2)N(Cc2ccccc2)[C@@H]2CCCC[C@H]2N1Cc1ccccc1` the TGI was 20.1 µM.
`CN1CCCOC(c2ccc(Cl)cc2)O1` (configuration not stated) was tested, and the TGI was greater than 100 µM.
Work on `O=C1/C(=C\c2cccc(Oc3ccccc3)c2)S(=O)(=O)C(c2ccccc2)N1c1cccc(Cl)c1` (configuration not stated) yielded a TGI greater than 100 µM.
`CCOC(=O)CCC1(CCC(=O)OCC)CCCCCCCCC(CCC(=O)OCC)(CCC(=O)OCC)C(=O)C1=O` was tested, and the TGI was greater than 100 µM.
`NCCCNCCCCN1CCOC1=O` gave a TGI greater than 100 µM.
Work on `O=C(Cn1c2ccc(Br)cc2c2nc3ccccc3nc21)NNC(=S)NC1CCCCC1` yielded a TGI of 30 µM.
Molecule `COCn1cnc2c(=O)nc(SC)n(-c3ccccc3)c21` has a TGI greater than 100 µM.

The molecules below were run on NCI-H226 lung (assay: growth of human tumour cells (NCI), 48 h).
For `COc1ccc(CNc2nc(NC3CCCCC3)nc(NC3CCCCC3)n2)cc1`, the TGI was 15.5 µM.
For `Cc1ccc(NC(=O)C(=O)C2C(=O)NC(=O)NC2=O)cc1C`, the TGI was greater than 100 µM.
With `S=C1NCCN1C(=S)Nc1ccccc1` the TGI was greater than 100 µM.
For `CCOC(=O)c1ccc(-c2ccc(Cl)cc2)[nH]1`, the TGI was greater than 10 µM.
Work on `CC1CC(Nc2ccc(Br)cc2)N(C(=O)c2ccc(Br)cc2)O1` (configuration not stated) yielded a TGI greater than 10 µM.
For `COc1cc2c(cc1O)NC(=O)[C@@H]1CCCN1C2=O`, the TGI was greater than 100 µM.
For `COc1ccc2nc(-c3ccccc3)c(=O)[nH]c2c1`, the TGI was greater than 100 µM.
`O=c1[nH]c2nc3ccccc3c(=O)n2/c1=C/c1cccs1` showed a TGI greater than 100 µM.
For `Cc1cc(C)nc(NC(P(=O)(O)O)P(=O)(O)O)n1`, the TGI was greater than 100 µM.
`COc1ccc(/C=N/N=C(\N)NO)c(OC)c1C` gave a TGI of 49.5 µM.
Molecule `COc1cc(Nc2nc3cc(C(F)(F)F)ccc3nc2C(=O)O)cc(OC)c1OC` has a TGI greater than 100 µM.
`NCCCN(CCCN)CCc1cn(C(=O)c2ccccc2)cn1` was tested, and the TGI was 26.1 µM.
`COc1cccc(-c2nc(-c3cnccn3)n(C/C=C/c3ccccc3)n2)c1` showed a TGI greater than 10 µM.
Work on `C=C1CC[C@H]2C(=O)OC(c3ccoc3)C[C@]2(C)C/C=C\C=C/1C(=O)OC` (some centres not stated) yielded a TGI greater than 25 µM.
Work on `CC(NC(=O)Cc1ccccc1)NC(=O)C(C)C(=O)NCc1ccccc1` (configuration not stated) yielded a TGI of 77.8 µM.
`CCCCC1Cc2cc(O)ccc2-c2nc3cc(O)ccc3n21` (configuration not stated) (tested in a mixture with another compound) gave a TGI of 46.3 µM.
Molecule `CC(NC(=O)c1c(O)[nH]c(=S)[nH]c1=O)c1ccc([N+](=O)[O-])cc1` (configuration not stated) has a TGI greater than 100 µM.
For `CC(=O)c1c(N=[N+]=[N-])c2cccc3c2n(c1=O)CCC3`, the TGI was 50.4 µM.
Molecule `NC1(CCNC(=O)c2ccccc2)CCN(C(=O)c2ccccc2)CC1` has a TGI greater than 100 µM.
For `Cn1nnnc1SC(F)(F)c1nc2ccccc2o1`, the TGI was greater than 100 µM.
`CC(=O)O[C@]12CCCCCC1C1(O)C(O)CCCCC12` (some centres not stated) was tested, and the TGI was greater than 100 µM.
In the case of `CC(=O)c1ccc2c(c1)C(=O)c1sc(C(C)=O)cc1C2=O`, the GI50 is reported as 1.43 µM and the TGI is reported as 2.2 µM and 4.03 µM.
In the case of `O=Cc1ccc(-c2ccc(-c3ccc(CO)s3)o2)s1`, the TGI is reported as 0.291 µM.
Molecule `CCOP(=O)(OCC)/C(C#N)=C/c1ccc(-c2cc(C(F)(F)F)cc(C(F)(F)F)c2)o1` has a TGI of 32.6 µM.
`CN1CCc2c(sc3[nH]c(=S)[nH]c(=S)c23)C1` was tested, and the TGI was greater than 100 µM.
Work on `Cc1n[n+](Cc2ccccc2)c2sc(N)nn12` yielded a TGI greater than 100 µM.
`CCOC(=O)c1c(OCC)[nH]c(=O)c(C(c2cccs2)c2c(O)c(C(=O)OCC)c(OCC)[nH]c2=O)c1O` showed a TGI of 27.4 µM.
`CC(=O)Nc1c(C(=N)C#N)ncn1CCO` gave a TGI greater than 100 µM.
`CN1CCN(/C(N)=C(\C#N)C(=O)Nc2ccc(Cl)cc2)CC1` gave a TGI greater than 100 µM.
`COc1cc2nc(-c3cccs3)nc(Cl)c2cc1OC` was tested, and the TGI was greater than 100 µM.
`O=P1(Cc2ccccc2)N(Cc2ccccc2)[C@@H]2CCCC[C@H]2N1Cc1ccccc1` gave a TGI of 4.63 µM.
`CN1CCCOC(c2ccc(Cl)cc2)O1` (configuration not stated) showed a TGI greater than 100 µM.
`CCOC(=O)CCC1(CCC(=O)OCC)CCCCCCCCC(CCC(=O)OCC)(CCC(=O)OCC)C(=O)C1=O` was tested, and the TGI was greater than 100 µM.
For `NCCCNCCCCN1CCOC1=O`, the TGI was greater than 100 µM.
For `O=C(Cn1c2ccc(Br)cc2c2nc3ccccc3nc21)NNC(=S)NC1CCCCC1`, the TGI was 33.6 µM.
Work on `COCn1cnc2c(=O)nc(SC)n(-c3ccccc3)c21` yielded a TGI greater than 100 µM.

Each molecule was assayed on SF-539 CNS (assay: growth of human tumour cells (NCI), 48 h).
`COc1ccc(CNc2nc(NC3CCCCC3)nc(NC3CCCCC3)n2)cc1` showed a TGI greater than 100 µM.
For `Cc1ccc(NC(=O)C(=O)C2C(=O)NC(=O)NC2=O)cc1C`, the TGI was greater than 100 µM.
In the case of `S=C1NCCN1C(=S)Nc1ccccc1`, the TGI is reported as greater than 100 µM.
With `CCOC(=O)c1ccc(-c2ccc(Cl)cc2)[nH]1` the TGI was greater than 10 µM.
Molecule `CC1CC(Nc2ccc(Br)cc2)N(C(=O)c2ccc(Br)cc2)O1` (configuration not stated) has a TGI greater than 10 µM.
For `COc1cc2c(cc1O)NC(=O)[C@@H]1CCCN1C2=O`, the TGI was greater than 100 µM.
`COc1ccc2nc(-c3ccccc3)c(=O)[nH]c2c1` was tested, and the TGI was greater than 100 µM.
`O=c1[nH]c2nc3ccccc3c(=O)n2/c1=C/c1cccs1` gave a TGI greater than 100 µM.
Molecule `Cc1cc(C)nc(NC(P(=O)(O)O)P(=O)(O)O)n1` has a TGI greater than 100 µM.
In the case of `COc1ccc(/C=N/N=C(\N)NO)c(OC)c1C`, the TGI is reported as 54.1 µM.
`CCCC(=O)[O-].CCCC(=O)[O-].NCCN.NCCN.[Co+3].[O-][Cl+3]([O-])([O-])[O-]` showed a TGI greater than 100 µM.
Work on `COc1cc(Nc2nc3cc(C(F)(F)F)ccc3nc2C(=O)O)cc(OC)c1OC` yielded a TGI greater than 100 µM.
In the case of `NCCCN(CCCN)CCc1cn(C(=O)c2ccccc2)cn1`, the TGI is reported as 35.3 µM.
For `COc1cccc(-c2nc(-c3cnccn3)n(C/C=C/c3ccccc3)n2)c1`, the TGI was greater than 10 µM.
`CC1(C)O[C@H]2OC(CO)C(N=[N+]=[N-])[C@H]2O1` (some centres not stated) gave a TGI greater than 100 µM.
For `C=C1CC[C@H]2C(=O)OC(c3ccoc3)C[C@]2(C)C/C=C\C=C/1C(=O)OC` (some centres not stated), the TGI was greater than 25 µM.
With `CC(NC(=O)Cc1ccccc1)NC(=O)C(C)C(=O)NCc1ccccc1` (configuration not stated) the TGI was greater than 100 µM.
`CC(=O)OCC1OC(n2c(C)c(N=Nc3ccc(Cl)cc3)c(C)c(C#N)c2=S)C(OC(C)=O)C(OC(C)=O)C1OC(C)=O` (configuration not stated) gave a TGI greater than 100 µM.
In the case of `CCCCC1Cc2cc(O)ccc2-c2nc3cc(O)ccc3n21` (configuration not stated) (tested in a mixture with another compound), the TGI is reported as 28.5 µM.
`CC(NC(=O)c1c(O)[nH]c(=S)[nH]c1=O)c1ccc([N+](=O)[O-])cc1` (configuration not stated) gave a TGI greater than 100 µM.
With `CC(=O)c1c(N=[N+]=[N-])c2cccc3c2n(c1=O)CCC3` the TGI was greater than 100 µM.
`NC1(CCNC(=O)c2ccccc2)CCN(C(=O)c2ccccc2)CC1` gave a TGI greater than 100 µM.
For `Cn1nnnc1SC(F)(F)c1nc2ccccc2o1`, the TGI was greater than 100 µM.
Work on `COc1ccc(C2c3cc4c(cc3OC(N3CCOCC3)C2C)OCO4)cc1` (configuration not stated) yielded a TGI of 68.6 µM.
`CC(=O)c1ccc2c(c1)C(=O)c1sc(C(C)=O)cc1C2=O` showed a TGI of 1.86 µM.
With `O=Cc1ccc(-c2ccc(-c3ccc(CO)s3)o2)s1` the TGI was greater than 81.6 µM.
`CCOP(=O)(OCC)/C(C#N)=C/c1ccc(-c2cc(C(F)(F)F)cc(C(F)(F)F)c2)o1` gave a TGI of 35.3 µM.
`CN1CCc2c(sc3[nH]c(=S)[nH]c(=S)c23)C1` gave a TGI greater than 100 µM.
`Cc1n[n+](Cc2ccccc2)c2sc(N)nn12` showed a TGI greater than 100 µM.
Work on `CCOC(=O)c1c(OCC)[nH]c(=O)c(C(c2cccs2)c2c(O)c(C(=O)OCC)c(OCC)[nH]c2=O)c1O` yielded a TGI of 28.5 µM.
`CC(=O)Nc1c(C(=N)C#N)ncn1CCO` was tested, and the TGI was greater than 100 µM.
For `CN1CCN(/C(N)=C(\C#N)C(=O)Nc2ccc(Cl)cc2)CC1`, the TGI was greater than 100 µM.
In the case of `COc1cc2nc(-c3cccs3)nc(Cl)c2cc1OC`, the TGI is reported as greater than 100 µM.
`O=P1(Cc2ccccc2)N(Cc2ccccc2)[C@@H]2CCCC[C@H]2N1Cc1ccccc1` was tested, and the TGI was 33.8 µM.
For `CN1CCCOC(c2ccc(Cl)cc2)O1` (configuration not stated), the TGI was greater than 100 µM.
